According to ChEMBL document CHEMBL4811256, “Synthesis and evaluation of multi-target-directed ligands with BACE-1 inhibitory and Nrf2 agonist activities as potential agents against Alzheimer's disease” (Eur J Med Chem, 2021):
Activity calls are given as the source filed them. The calls are words filed in the database; no cut-off is given here.

Tests used:
PC-12 [1] = assay: Protection against H2O2-induced apoptosis in rat PC-12 cells assessed as necrotic cells at 2.5 uM pretreated for 12 hrs followed by H2O2 challenge by annexin V FITC/propidium iodide staining based flow cytometry (reference value: 3.7 %); assay type: functional
Beta-secretase 1 = Beta-secretase 1 (Homo sapiens, UniProt P56817); assay: Inhibition of BACE-1 (unknown origin) using Mca-Ser-Glu-Val-Asn-Leu-Asp-Ala-Glu-Phe-Lys-Dnp-OH as substrate preincubated for 30 mins followed by substrate addition and measured after 1 hr by FRET assay
Sequence of Beta-secretase 1 (P56817 whole entry): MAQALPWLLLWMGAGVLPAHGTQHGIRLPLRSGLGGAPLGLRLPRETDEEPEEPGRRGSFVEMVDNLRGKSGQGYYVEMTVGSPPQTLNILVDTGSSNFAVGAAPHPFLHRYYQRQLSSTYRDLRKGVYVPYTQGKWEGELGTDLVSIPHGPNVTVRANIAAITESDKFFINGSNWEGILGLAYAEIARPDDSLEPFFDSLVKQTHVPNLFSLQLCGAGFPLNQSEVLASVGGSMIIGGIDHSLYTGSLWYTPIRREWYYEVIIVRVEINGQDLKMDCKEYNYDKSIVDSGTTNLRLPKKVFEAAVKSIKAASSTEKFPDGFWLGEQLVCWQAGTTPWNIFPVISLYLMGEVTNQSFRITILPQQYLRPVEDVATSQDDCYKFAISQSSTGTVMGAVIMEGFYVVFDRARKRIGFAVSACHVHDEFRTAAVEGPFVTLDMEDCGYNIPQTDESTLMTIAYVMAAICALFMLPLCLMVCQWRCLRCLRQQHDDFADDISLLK

PC-12 [2] = assay: Activation of Keap1-Nrf2-ARE pathway in rat PC-12 assessed as induction of accumulation of Nrf2 in nucleus at 10 uM measured after 3 hrs by Western blot analysis; conditions: filed as activator
PC-12 [3] = assay: Activation of Keap1-Nrf2-ARE pathway in rat PC-12 assessed as upregulation of GCLC protein expression measured after 12 hrs by Western blot analysis; conditions: filed as activator, dose 2.5-10 µM
PC-12 [4] = assay: Protection against 6-OHDA-induced apoptosis in rat PC-12 cells assessed as cell rescue pretreated for 12 hrs followed by 6-OHDA challenge by Hoechst 33342 staining based confocal microscopic analysis; assay type: functional; conditions: dose 2.5-10 µM
PC-12 [5] = assay: Protection against H2O2-induced apoptosis in rat PC-12 cells assessed as viable cells at 10 uM pretreated for 12 hrs followed by H2O2 challenge by annexin V FITC/propidium iodide staining based flow cytometry (reference value: 73.3 %); assay type: functional; conditions: read-out: Activity
PC-12 [6] = assay: Protection against H2O2-induced apoptosis in rat PC-12 cells assessed as early apoptic cells at 5 uM pretreated for 12 hrs followed by H2O2 challenge by annexin V FITC/propidium iodide staining based flow cytometry (reference value: 2.2 %); assay type: functional
PC-12 [7] = assay: Cytoprotective activity against H2O2- induced cell death in rat PC-12 cells assessed as increase in viable cells at 10 uM pretreated for 12 hrs followed by H2O2 challenge by MTT assay relative to control; assay type: functional
PC-12 [8] = assay: Cytoprotective activity against H2O2-induced oxidative stress in rat PC-12 cells assessed as decrease in cell death at 10 uM pretreated with brusatol for 1 hr followed by compound treatment for 12 hrs and subsequent H2O2 challenge by MTT assay; assay type: functional, cell-based
PC-12 [9] = assay: Protection against H2O2-induced apoptosis in rat PC-12 cells assessed as cell rescue pretreated for 12 hrs followed by H2O2 challenge by Hoechst 33342 staining based confocal microscopic analysis; assay type: functional; conditions: dose 2.5-10 µM
PC-12 [10] = assay: Protection against H2O2-induced apoptosis in rat PC-12 cells assessed as early apoptic cells at 2.5 uM pretreated for 12 hrs followed by H2O2 challenge by annexin V FITC/propidium iodide staining based flow cytometry (reference value: 2.2 %); assay type: functional
PC-12 [11] = assay: Protection against 6-OHDA-induced ROS accumulation in rat PC-12 cells assessed as intracellular ROS level by measuring mean fluorescence intensity pretreated for 12 hrs followed by 6-OHDA challenge by DCFH-DA staining based flow cytometry; assay type: functional, cell-based; conditions: dose 2.5-10 µM
HEK293 = assay: Inhibition of amyloid beta(1 to 40) secretion in human HEK293T cells transfected with human APP harboring Swedish double mutant K595N/M596L measured after 24 hrs by ELISA; assay type: functional, cell-based; conditions: dose 2.5-10 µM
PC-12 [12] = assay: Activation of Keap1-Nrf2-ARE pathway in rat PC-12 assessed as accumulation of Nrf2 in cytosol at 10 uM measured up to 24 hrs by Western blot analysis; assay type: subcellular; conditions: filed as activator, time hrs <=24
PC-12 [13] = assay: Protection against 6-OHDA-induced apoptosis in rat PC-12 cells assessed as viable cells at 10 uM pretreated for 12 hrs followed by 6-OHDA challenge by annexin V FITC/propidium iodide staining based flow cytometry (reference value: 76.7 %); assay type: functional; conditions: read-out: Activity
PC-12 [14] = assay: Protection against 6-OHDA-induced apoptosis in rat PC-12 cells assessed as viable cells at 2.5 uM pretreated for 12 hrs followed by 6-OHDA challenge by annexin V FITC/propidium iodide staining based flow cytometry (reference value: 76.7 %); assay type: functional; conditions: read-out: Activity
PC-12 [15] = assay: Prevention of H2O2-induced calcium overload in rat PC-12 cells assessed as reduction in intracellular free calcium pretreated with compound for 12 hrs followed by H2O2 challenge by Fluo-3AM based fluorescence assay; assay type: functional, cell-based; conditions: dose 2.5-10 µM
[16] = target: T1, Nuclear factor erythroid 2-related factor 2 (Mus musculus) (UniProt Q60795); assay: Activation of Nrf2 in mouse BV-2 cells assessed as upregulation of NQO1 protein expression after 24 hrs by Western blot analysis; assay type: cell-based; conditions: filed as activator, dose 2.5-10 µM
T1 sequence (whole entry): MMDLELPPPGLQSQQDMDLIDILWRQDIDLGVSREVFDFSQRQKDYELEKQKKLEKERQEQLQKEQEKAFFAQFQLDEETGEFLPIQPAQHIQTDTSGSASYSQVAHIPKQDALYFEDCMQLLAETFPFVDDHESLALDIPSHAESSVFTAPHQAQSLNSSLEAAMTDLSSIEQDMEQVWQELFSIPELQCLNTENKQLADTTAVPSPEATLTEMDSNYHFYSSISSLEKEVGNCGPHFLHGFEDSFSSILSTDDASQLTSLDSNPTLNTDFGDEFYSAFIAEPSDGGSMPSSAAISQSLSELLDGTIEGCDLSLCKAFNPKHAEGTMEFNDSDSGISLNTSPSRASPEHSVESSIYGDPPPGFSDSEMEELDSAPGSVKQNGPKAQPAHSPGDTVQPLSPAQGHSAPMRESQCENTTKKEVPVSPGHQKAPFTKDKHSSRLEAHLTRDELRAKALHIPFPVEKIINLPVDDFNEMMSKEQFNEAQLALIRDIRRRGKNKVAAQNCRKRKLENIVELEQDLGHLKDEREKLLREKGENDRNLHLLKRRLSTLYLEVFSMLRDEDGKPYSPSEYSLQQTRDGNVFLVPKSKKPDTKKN

PC-12 [17] = assay: Protection against H2O2-induced apoptosis in rat PC-12 cells assessed as late apoptic cells at 2.5 uM pretreated for 12 hrs followed by H2O2 challenge by annexin V FITC/propidium iodide staining based flow cytometry (reference value: 20.8 %); assay type: functional
PC-12 [18] = assay: Protection against 6-OHDA-induced apoptosis in rat PC-12 cells assessed as late apoptotic cells at 2.5 uM pretreated for 12 hrs followed by 6-OHDA challenge by annexin V FITC/propidium iodide staining based flow cytometry (reference value: 17.3 %); assay type: functional
PC-12 [19] = assay: Protection against 6-OHDA-induced apoptosis in rat PC-12 cells assessed as necrotic cells at 2.5 uM pretreated for 12 hrs followed by 6-OHDA challenge by annexin V FITC/propidium iodide staining based flow cytometry (reference value: 3.7 %); assay type: functional
PC-12 [20] = assay: Protection against 6-OHDA-induced apoptosis in rat PC-12 cells assessed as late apoptotic cells at 5 uM pretreated for 12 hrs followed by 6-OHDA challenge by annexin V FITC/propidium iodide staining based flow cytometry (reference value: 17.3 %); assay type: functional
PC-12 [21] = assay: Activation of Keap1-Nrf2-ARE pathway in rat PC-12 assessed as upregulation of TrxR1 protein expression at 10 uM measured after 6 to 24 hrs by Western blot analysis; conditions: filed as activator, time 6-24 hrs

In the case of `CN1C(N)=N[C@](C)(c2cc(-n3[se]c4cc(F)ccc4c3=O)ccc2F)CS1(=O)=O`, the Activity (PC-12 [1]) is reported as 2.1%, the IC50 (Beta-secretase 1) is reported as 1.06 µM and the Activity (PC-12 [2]) is reported as “Active”. For the same compound, the Activity (PC-12 [3]) was “Active”, the Activity (PC-12 [4]) was “Dose-Dependent Effect” and the viability at 10 µM (PC-12 [5]) was 92.6%. For the same compound, the Activity (PC-12 [6]) was 1.6%, the Activity (PC-12 [7]) was 80% and the Activity (PC-12 [8]) was “inactive”. For the same compound, the Activity (PC-12 [9]) was “Dose-Dependent Effect”, the Activity (PC-12 [10]) was 2% and the Activity (PC-12 [11]) was “Dose-Dependent Effect”. For the same compound, the inhibition (HEK293) was “Active”, the Activity (PC-12 [12]) was “Active” and the viability at 10 µM (PC-12 [13]) was 90.5%. The viability at 2.5 µM (PC-12 [14]) was 79.8%, the Activity (PC-12 [15]) was “Dose-Dependent Effect” and the Activity [16] was “Dose-Dependent Effect”. For the same compound, the Activity (PC-12 [17]) was 12.3%, the Activity (PC-12 [18]) was 14.9% and the Activity (PC-12 [19]) was 3.3%. For the same compound, the Activity (PC-12 [20]) was 11.8% and the Activity (PC-12 [21]) was “Active”.
